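1) Cells in 96-well plates. 2) Compound, 48 h, 5 concentrations. 3) Linear interpolation between surrounding doses. 4) Unreached endpoint = highest concentration. TGI is the concentration that stops growth completely.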
Assays:
Test in all cases: DTP human tumour cell line panel, 48 h
[1] = system: M14 melanoma
[2] = system: U251 CNS
[3] = system: K-562 leukemia
[4] = system: SF-295 CNS
[5] = system: SF-268 CNS
[6] = system: SNB-19 CNS
[7] = system: HCT-15 colon
[8] = system: COLO 205 colon
[9] = system: SK-MEL-5 melanoma
[10] = system: KM12 colon
[11] = system: HCT-116 colon
[12] = system: DMS 114 small cell lung
[13] = system: A498 renal
[14] = system: OVCAR-3 ovarian
[15] = system: HL-60(TB) leukemia
[16] = system: M19-MEL melanoma
[17] = system: NCI-H23 lung
[18] = system: IGROV1 ovarian
[19] = system: HOP-62 NSCLC
[20] = system: OVCAR-4 ovarian
[21] = system: 786-0 renal
[22] = system: HCC-2998 colon
[23] = system: HT29 colon
[24] = system: SK-MEL-2 melanoma
[25] = system: DMS 273 small cell lung
[26] = system: RPMI-8226 leukemia
[27] = system: OVCAR-5 ovarian
[28] = system: SF-539 CNS
[29] = system: LOX IMVI melanoma
[30] = system: TK-10 renal
[31] = system: CCRF-CEM leukemia
[32] = system: NCI-H522 lung
[33] = system: A549 NSCLC
[34] = system: NCI-H460 lung
[35] = system: CAKI-1 renal
[36] = system: SW-620 colon
[37] = system: MOLT-4 leukemia
[38] = system: MALME-3M melanoma
[39] = system: UO-31 renal
[40] = system: SN12C renal
[41] = system: OVCAR-8 ovarian
[42] = system: LXFL 529 NSCLC
[43] = system: SK-MEL-28 melanoma
[44] = system: HOP-18 NSCLC
[45] = system: SK-OV-3 ovarian
[46] = system: HOP-92 NSCLC
[47] = system: EKVX NSCLC
[48] = system: DLD-1 colon
[49] = system: ACHN renal
[50] = system: UACC-62 melanoma
[51] = system: XF 498 CNS
[52] = system: KM20L2 colon
[53] = system: SNB-78 CNS
[54] = system: UACC-257 melanoma
[55] = system: RXF 393 renal
[56] = system: NCI-H226 lung
[57] = system: SNB-75 CNS
[58] = system: RXF-631 renal
[59] = system: SR leukemia
[60] = system: BT-549 breast
[61] = system: MDA-MB-231 breast
[62] = system: NCI/ADR-RES ovarian
[63] = system: PC-3 prostate
[64] = system: DU-145 prostate
[65] = system: MDA-N
[66] = system: T-47D breast
[67] = system: MDA-MB-435

Measured: TGI

O=C(O)COc1ccc2c3c1C(=O)CCC3CO2 (centres undefined)
not listed: [55] | [56] | [57] | [58] | [59] | [60] | [61] | [62] | [63] | [64] | [65] | [66] | [67]
> 100 µM: all other assays above

CN1C(=O)CNS1(=O)=O
not listed: [8] | [16] | [20] | [32] | [35] | [44] | [47] | [52] | [60] | [61] | [62] | [63] | [64] | [65] | [66] | [67]
> 100 µM: all other assays above

CCOc1ccc(N=C2NC(=O)C(CC(=O)Nc3ccc(Cl)cc3Cl)S2)cc1 (centres undefined)
not listed: [11] | [15] | [32] | [44] | [46] | [55] | [56] | [59] | [60] | [61] | [62] | [63] | [64] | [65] | [66] | [67]
> 100 µM: all other assays above

CCC1CN2CCc3cc(OC)c(OC)cc3C2CC1CC1c2cc(OC)c(OC)cc2CCN1C(=O)C(Cc1c[nH]c2ccccc12)NC(=O)OC(C)(C)C (centres undefined)
16 µM: [30]
3.06 µM: [12]
3.63 µM: [20]
3.29 µM: [1]
8.58 µM: [41]
10.4 µM: [49]
7.13 µM: [24]
6.15 µM: [26]
8.07 µM: [37]
6.29 µM: [2]
3.4 µM: [67]
14.5 µM: [19]
7.77 µM: [39]
10 µM: [47]
27.4 µM: [48]
9.31 µM: [4]
15.9 µM: [5]
27.6 µM: [56]
8.53 µM: [54]
3.08 µM: [9]
7.35 µM: [7]
3.22 µM: [38]
9.03 µM: [36]
3.11 µM: [16]
3.19 µM: [51]
4.16 µM: [66]
3.8 µM: [15] | [52]
10.5 µM: [63]
4.25 µM: [18]
3.49 µM: [65]
5.57 µM: [32]
10.8 µM: [57] | [42]
11 µM: [10]
4.01 µM: [23]
19.1 µM: [25]
5.78 µM: [11]
17.8 µM: [13]
> 33.9 µM: [3]
5.24 µM: [22]
3.02 µM: [62]
16.6 µM: [17]
4.75 µM: [64]
4.43 µM: [28]
6.74 µM: [14] | [21]
16.7 µM: [27] | [35]
7.15 µM: [34]
2.95 µM: [8]
7.83 µM: [60]
7.3 µM: [55]
7.93 µM: [33]
13.8 µM: [59]
18.7 µM: [44]
7.1 µM: [46]
17.6 µM: [6]
3.66 µM: [61]
3.58 µM: [29]
4.31 µM: [43]
9.48 µM: [45]
14 µM: [50]
15.7 µM: [31]
40.5 µM: [53]
8.7 µM: [40]

Cc1cc2c(cc1C)[n+](=O)c(C(=O)CC(=O)C(=O)Nc1ccccc1C)c(C)n2[O-]
not listed: [12] | [48] | [51] | [60] | [61] | [62] | [63] | [64] | [65] | [66] | [67]
> 100 µM: all other assays above

Cc1cc2c(=O)cc(-c3ccc(C(=O)O)cc3)oc2c(C(N)=O)c1C
not listed: [15] | [35] | [44] | [51] | [55] | [56] | [59] | [60] | [61] | [62] | [63] | [64] | [65] | [66] | [67]
> 100 µM: all other assays above

O=C(Cc1c(C(=O)Nc2ccccc2)sc(C(=O)Nc2ccccc2)c1CC(=O)Nc1ccccc1)Nc1ccccc1
19.8 µM: [43]
13.7 µM: [5]
not listed: [7] | [24] | [37] | [58] | [59] | [60] | [61] | [62] | [63] | [64] | [65] | [66] | [67]
> 100 µM: all other assays above

— PubChem BioAssay (NCI)
